The numbers were not newly measured in patent publication US8211035B2, “System and method for monitoring health using exhaled breath” (University of Florida Research Foundation, Inc., priority 2002, dated 2012), which cites them from elsewhere.

In the case of `CC(C)c1cccc(C(C)C)c1O` [propofol, 2,6-diisopropylphenol], the “dose recovered in urine as hydroxylated and conjugated metabolites” value was 88%.
